Consider ten molecules from patent US6348454B1, “Syntheses of new isodethiaazacephems and isodethiaazacephams, and use as potent antibacterial agents” (National Science Council, priority 1999, dated 2002).

Values after ≈ are worked out from the molar mass of the structure shown. Read-outs that look alike come from different tables or passages of the source.

One data set has as its system E. coli ATCC 39188. Nature of the data set: Antibacterial activity, serial broth dilution method (MIC). It counts as cell-based. As to conditions: for MIC: Escherichia coli, read-out: Minimal Inhibitory Concentrations. Here is the method: (§1) Antimicrob. Agents Chemother. 1978, 14, 807-811] penicillin G [Morris, J. J.; Page, M. I. Intra- and Intermolecular Catalysis in the Aminolysis of Benzylpenicillin. J. Chem. Soc., Perkin Trans 2 1980, 212-219], and 7-(β-phenylacetamido)-3′-desacetoxycephalosporanic acid (±)−2 [Page, M. L.; Proctor, P. Mechanism of β-Lactam Opening in Cephalosporins. J. Am. Chem. Soc. 1984, 106, 3820-3825] in vitro against five pathogenic microorganisms. The doses used were as high as 128 μg/mL.
(§2) The serial broth dilution method was used to study the antibiotic activity [Pursiano, T. A.; Misiek, M.; Leitner, F.; Price, K. E. Effect of Assay Medium on the Antibacterial Activity of Certain Penicillins and Cephalosporins. Antimicrob. Agents Chemother. 1973, 3, 33-39]. The inocula were prepared by use of the heart infusion broth (Difco Laboratories) to make 10^−4 dilutions of the overnight cultures. Tubes of the seeded antibiotic-containing media were incubated at 37° C. for 20 h. The lowest concentration of antibiotic that prevented visible growth of microorganisms was then determined.
A general note: Broth dilution looks for growth in wells or tubes with falling amounts of substance.

The test system of another data set is K. pneumoniae NCTC 418. The description is as above. In kind it is cell-based. As to conditions: for MIC: Klebsiella pneumoniae, read-out: Minimal Inhibitory Concentrations. As for the experimental part:
as §1, §2

A further data set has as its system Ps. aeruginosa 1101-75. The description is as above. In kind it is cell-based. The conditions noted are these: for MIC: read-out: Minimal Inhibitory Concentrations. As for the experimental part:
as §1, §2

The test system of a further data set is S. aureus FDA 209P. The data set is described as above. In kind it is cell-based. As to conditions: 20 h; for MIC: Staphylococcus aureus, FDA209P, read-out: Minimal Inhibitory Concentrations. As for the experimental part:
as §1, §2

A further data set relates to S. typhi O-901. The description is as above. As to conditions: 20 h; for MIC: Salmonella enterica, TYPHI, read-out: Minimal Inhibitory Concentrations; for Minimal Inhibitory Concentrations: S. typhi O-901, average of triplicate determinations, 37° C. It counts as cell-based. Here is the method: as §1, §2
A short description of data set [1]: Stability of β-lactams in water at various pH. As to conditions: for time within which pH of the aqueous solution changed to ˜1 (destruction of β-lactam ring): initial pH about 4.0; for time the β-lactam ring survived / time within which β-lactam ring was destructed: pH 1.0. As for the experimental part: In another series of assays, we dissolved isodethiaazacephems (±)−3 and (±)−4 as well as isodethiaazacepham (±)−5 in distilled water (5.0 mg/mL).

Data set [2] concerns five pathogenic microorganisms. The experiment in a line: Antibacterial activity in vitro, summary in words. It counts as cell-based. As to conditions: doses as high as 128 μg/mL; Table 1. As for the experimental part:
as §1, §2

The mark [3] stands for this setting: ATCC39188, E. coli ATCC 39188, average of triplicate determinations, 37° C., 20 h.
The mark [4] stands for this setting: NCTC418, K. pneumoniae NCTC 418, average of triplicate determinations, 37° C., 20 h.
[5] abbreviates: Pseudomonas aeruginosa, 110175, Ps. aeruginosa 1101-75, average of triplicate determinations, 37° C., 20 h.
[6] abbreviates: S. aureus FDA 209P, average of triplicate determinations, 37° C.
[7] abbreviates: Pseudomonas aeruginosa, 110175, 20 h.
Setting [8] is: E. coli ATCC 39188, average of triplicate determinations, 37° C., 20 h.
The mark [9] stands for this setting: K. pneumoniae NCTC 418, average of triplicate determinations, 37° C., 20 h.
[10] abbreviates: Ps. aeruginosa 1101-75, average of triplicate determinations, 37° C., 20 h.

The melting point is the temperature, or range, at which the solid turns liquid. By solubility is commonly meant how much of the substance goes into solution per volume. `CS(=O)(=O)OC1=C(C(=O)O)N2C(=O)[C@@H](NC(=O)Cc3ccccc3)[C@H]2CN1` (racemic) [(±)-3, (6RS,7SR)-3-Methanesulfonyloxy-8-oxo-7-(phenylacetamido)-1,4-diazabicyclo[4.2.0]oct-2-ene-2-carboxylic Acid] returned a melting point of 115 to 117 °C. Moreover, the MIC with E. coli ATCC 39188 (setting [3]) worked out at 0.95 µg/mL (≈ 2.4 µM). For the same molecule, the MIC in the data set with K. pneumoniae NCTC 418 (setting [4]) was determined as 0.68 µg/mL (≈ 1.72 µM). The MIC in the data set with Ps. aeruginosa 1101-75 (setting [5]) was 4.38 µg/mL (≈ 11.1 µM). In addition, the MIC in the data set on S. aureus FDA 209P (setting [6]) came to 0.07 µg/mL (≈ 0.177 µM). For the same molecule, the MIC in the data set on S. typhi O-901 stood at 1.2 µg/mL (≈ 3.03 µM). In data set [1] (distilled water, 5.0 mg/mL), the “initial pH value of the aqueous solution” value was “about 4.0” and the “time within which pH of the aqueous solution changed to ˜1 (destruction of β-lactam ring)” value is “three”. Moreover, the “time the β-lactam ring survived” value in data set [1] was around 4 h. Further, the “antibacterial activity (in words)” value in data set [2] is on record as “promising antimicrobial activities”. The molecule also registered a solubility in the data set “physchem” (water) of 21 mg/mL (≈ 53100 µM).
As to `O=C(Cc1ccccc1)N[C@@H]1C(=O)N2C(C(=O)O)=C(OS(=O)(=O)C(F)(F)F)NC[C@H]12` (racemic) [(±)-4, (6RS,7SR)-3-Trifluoromethanesulfonyloxy-8-oxo-7-(phenylacetamido)-1,4-diazabicyclo[4.2.0]oct-2-ene-2-carboxylic Acid], the melting point lay within 100 to 102 °C. For the same molecule, the MIC with E. coli ATCC 39188 (setting [3]) amounted to 0.09 µg/mL (≈ 0.2 µM). In addition, in the data set with K. pneumoniae NCTC 418 (setting [4]), the MIC worked out at 0.24 µg/mL (≈ 0.534 µM). In the data set on Ps. aeruginosa 1101-75 (setting [5]), the MIC is 1.15 µg/mL (≈ 2.56 µM). Besides, the MIC with S. aureus FDA 209P (setting [6]) is 0.01 µg/mL (≈ 0.0223 µM). The MIC in the data set with S. typhi O-901 was found to be 0.68 µg/mL (≈ 1.51 µM). For the same molecule, in data set [1] (distilled water, 5.0 mg/mL), the “initial pH value of the aqueous solution” value is reported as “about 4.0” and the “time within which pH of the aqueous solution changed to ˜1 (destruction of β-lactam ring)” value is on record as “two”. Also, in data set [1], the “time the β-lactam ring survived” value is listed as around 2 h. For the same molecule, in [2], the “antibacterial activity (in words)” value is given as “promising antimicrobial activities”. Further, the solubility in “physchem” (water) was 27 mg/mL (≈ 60100 µM).
As for `CS(=O)(=O)OC1=C(C(=O)OCc2ccccc2)N2C(=O)[C@@H](NC(=O)Cc3ccccc3)[C@H]2CN1` (racemic) [(±)-11, Benzyl (6RS,7SR)-3-Methanesulfonyloxy-8-oxo-7-(phenylacetamido)-1,4-diazabicyclo[4.2.0]oct-2-ene-2-carboxylate], the MIC was above 128 µg/mL in the data set on E. coli ATCC 39188 (ATCC39188, 20 h); above 128 µg/mL with K. pneumoniae NCTC 418 (NCTC418, 20 h); above 128 µg/mL in the data set with Ps. aeruginosa 1101-75 (setting [7]); above 128 µg/mL in the data set on S. aureus FDA 209P; above 128 µg/mL in the data set with S. typhi O-901. Also, the “antibacterial activity (in words)” value in [2] is “do not exhibit antibacterial activity”.
Regarding `CS(=O)(=O)C1=C(O)NC[C@@H]2[C@H](NC(=O)Cc3ccccc3)C(=O)N12` (racemic) [(±)-17, (6RS,7SR)-3-Hydroxy-8-oxo-7-(phenylacetamido)-1,4-diazabicyclo[4.2.0]oct-2-ene-2-methylsulfone], the “Minimal Inhibitory Concentrations” value in the data set on S. typhi O-901 was above 128 µg/mL. In data set [1], the “time within which β-lactam ring was destructed” value is “two”.
Take `CC1=C(C(=O)O)N2C(=O)C(NC(=O)Cc3ccccc3)C2SC1` (single isomer, unassigned; (+)) [(+)-2, 7-(β-phenylacetamido)-3′-desacetoxycephalosporanic acid, reference compound]: the “Minimal Inhibitory Concentrations” value with E. coli ATCC 39188 (setting [8]) is 13.13 µg/mL; with K. pneumoniae NCTC 418 (setting [9]), 2.98 µg/mL; in the data set on Ps. aeruginosa 1101-75 (setting [10]) it was 100.0 µg/mL; in the data set on S. aureus FDA 209P (setting [6]), 0.64 µg/mL; with S. typhi O-901, 24.50 µg/mL.
On to `CC1(C)S[C@@H]2[C@H](NC(=O)Cc3ccccc3)C(=O)N2[C@H]1C(=O)O` [penicillin G, reference compound], for which the “Minimal Inhibitory Concentrations” value in the data set on E. coli ATCC 39188 (setting [8]) is 2.30 µg/mL; in the data set with S. aureus FDA 209P (setting [6]), 0.40 µg/mL; in the data set with S. typhi O-901, above 128 µg/mL.
Turning to “(2RS,6RS,7SR)- and (2SR,6RS,7SR)-2-Methanesulfonyl-3,8-dioxo-7-(phenylacetamido)-1,4-diazabicyclo[4.2.0]octane-2-carboxylic Acid [(±)-5]”, the “Minimal Inhibitory Concentrations” value came to 97.17 µg/mL with E. coli ATCC 39188 (setting [8]); 51.02 µg/mL in the data set with K. pneumoniae NCTC 418 (setting [9]); 120.0 µg/mL in the data set with Ps. aeruginosa 1101-75 (setting [10]); 48.50 µg/mL in the data set with S. aureus FDA 209P (setting [6]); 65.30 µg/mL in the data set on S. typhi O-901. For the same molecule, the “time within which β-lactam ring was destructed” value in data set [1] (acidic solution) is given as at most 3 h. This molecule came in with a time of decarboxylation in [1] (basic solution, pH 12) of at most 20 min. Further, the “initial pH value of the aqueous solution” value in data set [1] (distilled water, 5.0 mg/mL) is “about 2.0”. In addition, the “time within which pH of aqueous solution changed from 2.0 to 6.0 (decarboxylation to (±)−17)” value in data set [1] (distilled water, 5.0 mg/mL) was 5-6 days. For the same molecule, in data set [2], the “antibacterial activity (in words)” value is recorded as “profound antibacterial activity”.
For the molecule `O=C(Cc1ccccc1)N[C@@H]1C(=O)N2C(C(=O)OCc3ccccc3)=C(OS(=O)(=O)C(F)(F)F)NC[C@H]12` (racemic) [(±)-12, Benzyl (6RS,7SR)-3-Trifluoromethanesulfonyloxy-8-oxo-7-(phenylacetamido)-1,4-diazabicyclo[4.2.0]oct-2-ene-2-carboxylate], the MIC in the data set on E. coli ATCC 39188 (ATCC39188, 20 h) was above 128 µg/mL; in the data set with K. pneumoniae NCTC 418 (NCTC418, 20 h) it was above 128 µg/mL; with Ps. aeruginosa 1101-75 (setting [7]), above 128 µg/mL; in the data set on S. aureus FDA 209P, above 128 µg/mL; with S. typhi O-901, above 128 µg/mL. The “antibacterial activity (in words)” value in [2] is listed as “do not exhibit antibacterial activity”.
`O=C(Cc1ccccc1)N[C@@H]1C(=O)N2C(C(=O)O)=C(O)NC[C@H]12` (racemic) [(±)-10, (6RS,7SR)-3-Hydroxy-8-oxo-7-(phenylacetamido)-1,4-diazabicyclo[4.2.0]-oct-2-ene-2-carboxylic Acid] gave a melting point of 140 to 142 °C. In addition, the MIC with E. coli ATCC 39188 (setting [3]) stood at 94.7 µg/mL (≈ 298 µM). Also, the MIC in the data set on K. pneumoniae NCTC 418 (NCTC418, 20 h) is above 128 µg/mL. In addition, the MIC in the data set with Ps. aeruginosa 1101-75 (setting [7]) is above 128 µg/mL. Moreover, the MIC with S. aureus FDA 209P (setting [6]) was found to be 29.5 µg/mL (≈ 93 µM). In addition, in the data set on S. typhi O-901, the MIC is above 128 µg/mL. In addition, the “time stable in phosphate buffer” value in [1] (phosphate buffer (0.10 M, pH 6.8)) is on record as “two”. This molecule displayed a solubility in “physchem” (pH 6.8, aqueous buffer) of 35 mg/mL (≈ 110000 µM).
In the case of `CO/N=C(\C(=O)N[C@@H]1C(=O)N2C(C(=O)O)=C(COC(C)=O)CS[C@H]12)c1csc(N)n1` [cefotaxime, reference compound], the MIC with E. coli ATCC 39188 (setting [3]) amounted to 0.25 µg/mL (≈ 0.549 µM); in the data set on K. pneumoniae NCTC 418 (setting [4]), 10.2 µg/mL (≈ 22.5 µM); with Ps. aeruginosa 1101-75 (setting [5]), 62.4 µg/mL (≈ 137 µM); in the data set on S. aureus FDA 209P (setting [6]), 0.08 µg/mL (≈ 0.176 µM); in the data set with S. typhi O-901, 20.3 µg/mL (≈ 44.6 µM).
